The values that follow are results of earlier work, collected in patent US20260144779A1, “MODIFIED RELEASE PHARMACEUTICAL FORMULATIONS COMPRISING DEFERIPRONE” (CHIESI FARMACEUTICI S.P.A., priority 2022, published 2026).

The conditions of this series: in vivo.

SMILES strings stand for the structures.

With `Cc1c(O)c(=O)ccn1C` [Deferiprone, 3-hydroxy-1,2-dimethylpyridin-4-one], the Half-life is 2 to 3 h.
